From article PMC8085982 (Microbial Biotechnology, 2021) come the findings set out here.

Like-named read-outs stand apart in the source and are kept apart here.

Test [1] deals with Pa5930 laccase. As to conditions: 50 mM Tris-HCl pH 7.2, 24 °C.
Test [2] has as its system Pp4816 laccase. As to conditions: 50 mM Tris-HCl pH 7.2, 24 °C.
Test [3] deals with Pa5930 laccase. The test is described as follows: initial rates, OD420, sigmoidal. It counts as biochemical, Pediococcus acidilactici. To be noted: 50 mM sodium citrate pH 3.4, 24 °C; sigmoidal kinetics.
Test [4] deals with Pp4816 laccase. Briefly: initial rates, OD420, sigmoidal. It counts as biochemical, Pediococcus pentosaceus. To be noted: 50 mM sodium citrate pH 3.4, 24 °C; sigmoidal kinetics.

Regarding `COc1cccc(OC)c1O` [2,6-DMP, 2,6‐dimethoxyphenol], the Km (in general, the substrate concentration at which the rate is half of its maximum) turned out to be 3110 ± 850 µM in the test with Pa5930 laccase [1] and 6330 ± 1320 µM in the test on Pp4816 laccase [2].
As for `CCn1c(=NN=c2sc3cc(S(=O)(=O)O)ccc3n2CC)sc2cc(S(=O)(=O)O)ccc21` [ABTS, 2,2‐azino‐bis(3‐ethylbenzothiazoline‐6‐sulfonic acid)], the figures for the Km in the test on Pa5930 laccase [3] and in the test on Pp4816 laccase [4] were 330 ± 40 µM and 310 ± 30 µM, respectively.
